According to ChEMBL document CHEMBL4196200 (J Med Chem, 2018):

How the values were obtained:
[1] = molecular target: T1, Vasopressin V1b receptor (Homo sapiens, UniProt P47901); assay: Binding affinity to V1B receptor (unknown origin)
T1 sequence (P47901 whole entry): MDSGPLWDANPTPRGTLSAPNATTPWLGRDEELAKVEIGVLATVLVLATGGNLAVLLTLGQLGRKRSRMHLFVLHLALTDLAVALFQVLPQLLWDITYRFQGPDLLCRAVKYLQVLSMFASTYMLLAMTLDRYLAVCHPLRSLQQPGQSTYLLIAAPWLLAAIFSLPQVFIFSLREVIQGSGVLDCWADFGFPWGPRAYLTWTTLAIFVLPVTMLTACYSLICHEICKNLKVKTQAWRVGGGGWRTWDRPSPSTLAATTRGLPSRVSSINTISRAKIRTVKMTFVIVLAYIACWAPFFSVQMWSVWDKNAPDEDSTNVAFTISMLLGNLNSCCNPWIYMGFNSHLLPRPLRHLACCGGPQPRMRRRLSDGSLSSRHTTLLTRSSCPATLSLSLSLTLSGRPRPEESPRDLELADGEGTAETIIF

[2] = molecular target: T2, Vasopressin V1a receptor (Homo sapiens, UniProt P37288); assay: Agonist activity at human V1A receptor expressed in CHO cells assessed as increase in myo-inositol 1-phosphate accumulation at 1 uM by IP-One assay relative to AVP; assay type: functional, cell-based
Target sequence in this assay (P37288 whole entry, looked up): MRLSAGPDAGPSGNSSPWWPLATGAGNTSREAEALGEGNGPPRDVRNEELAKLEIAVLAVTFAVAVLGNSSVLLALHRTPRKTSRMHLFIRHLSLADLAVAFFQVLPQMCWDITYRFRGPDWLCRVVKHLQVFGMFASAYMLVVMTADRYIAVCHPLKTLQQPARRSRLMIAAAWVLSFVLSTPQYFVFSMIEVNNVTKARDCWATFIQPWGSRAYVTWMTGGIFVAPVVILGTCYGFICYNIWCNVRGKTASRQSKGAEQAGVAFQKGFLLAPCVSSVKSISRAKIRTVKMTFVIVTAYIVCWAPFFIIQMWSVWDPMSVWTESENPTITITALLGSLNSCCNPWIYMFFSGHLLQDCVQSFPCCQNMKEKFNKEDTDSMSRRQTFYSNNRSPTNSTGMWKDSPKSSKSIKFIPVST

[3] = molecular target: T2, Vasopressin V1a receptor; assay: Antagonist activity at human V1A receptor expressed in CHO cells assessed as inhibition of AVP-induced myo-inositol 1-phosphate accumulation at 1 uM by IP-One assay relative to AVP; assay type: functional, cell-based
Target sequence in this assay (P37288 whole entry, looked up): as above

[4] = species: Homo sapiens; assay: Selectivity for human OTR receptor over human V2 receptor
[5] = molecular target: T3, Vasopressin V2 receptor (Homo sapiens, UniProt P30518); assay: Binding affinity to V2 receptor (unknown origin)
[6] = molecular target: T4, Oxytocin receptor (Homo sapiens, UniProt P30559); assay: Binding affinity to OTR receptor (unknown origin)
T4 sequence (P30559 whole entry): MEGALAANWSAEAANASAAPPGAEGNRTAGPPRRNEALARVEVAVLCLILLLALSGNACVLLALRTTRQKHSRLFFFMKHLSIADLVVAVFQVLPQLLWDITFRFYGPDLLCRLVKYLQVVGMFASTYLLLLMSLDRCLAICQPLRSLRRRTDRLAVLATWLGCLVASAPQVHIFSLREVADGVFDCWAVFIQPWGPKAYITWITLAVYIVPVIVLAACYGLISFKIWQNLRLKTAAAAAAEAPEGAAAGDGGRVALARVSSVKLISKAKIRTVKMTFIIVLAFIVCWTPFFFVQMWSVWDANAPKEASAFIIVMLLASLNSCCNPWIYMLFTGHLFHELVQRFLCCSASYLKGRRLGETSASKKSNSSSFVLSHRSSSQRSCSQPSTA

[7] = molecular target: T3, Vasopressin V2 receptor; assay: Agonist activity at V2 receptor (unknown origin) by cAMP accumulation assay; assay type: functional
[8] = species: Homo sapiens; assay: Selectivity for human V1a receptor over human V2 receptor
[9] = molecular target: T5, Oxytocin receptor (Rattus norvegicus, UniProt P70536); assay: Antagonist activity at OXR receptor in rat uterus; assay type: functional
T5 sequence (P70536 whole entry): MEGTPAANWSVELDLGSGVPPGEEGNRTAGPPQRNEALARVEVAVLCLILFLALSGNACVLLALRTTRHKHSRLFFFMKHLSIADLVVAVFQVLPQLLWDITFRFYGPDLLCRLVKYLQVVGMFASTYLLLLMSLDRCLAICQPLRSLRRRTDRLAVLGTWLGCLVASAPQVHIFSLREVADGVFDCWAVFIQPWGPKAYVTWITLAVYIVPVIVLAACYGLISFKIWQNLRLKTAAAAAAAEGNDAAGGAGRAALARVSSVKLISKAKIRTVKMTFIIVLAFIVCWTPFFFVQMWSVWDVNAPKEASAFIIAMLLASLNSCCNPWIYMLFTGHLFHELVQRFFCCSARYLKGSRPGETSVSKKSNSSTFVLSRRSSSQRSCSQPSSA

[10] = molecular target: T2, Vasopressin V1a receptor; assay: Binding affinity to V1A receptor (unknown origin)
Target sequence in this assay (P37288 whole entry): as the sequence (P37288 whole entry, looked up) above

[11] = molecular target: T2, Vasopressin V1a receptor; assay: Antagonist activity at V1A receptor (unknown origin) by cAMP accumulation assay; assay type: functional
Target sequence in this assay (P37288 whole entry): as the sequence (P37288 whole entry, looked up) above

[12] = molecular target: T4, Oxytocin receptor; assay: Antagonist activity at human OTR receptor expressed in HEK293FT cells assessed as inhibition of LIT-001-induced response incubated for 30 mins by beta-arrestin recruitment assay; assay type: functional, cell-based
[13] = molecular target: T3, Vasopressin V2 receptor; assay: Antagonist activity at human V2 receptor expressed in HEK293FT cells assessed as inhibition of […] response incubated for 30 mins by beta-arrestin recruitment assay; assay type: functional, cell-based
[14] = molecular target: T4, Oxytocin receptor; assay: Antagonist activity at human OTR receptor expressed in HEK293FT cells assessed as inhibition of LIT-001-induced calcium release by Aequorin based assay; assay type: functional, cell-based
[15] = molecular target: T3, Vasopressin V2 receptor; assay: Antagonist activity at human V2 receptor expressed in HEK293FT cells assessed as inhibition of AVP-induced calcium release by Aequorin based assay; assay type: functional, cell-based
[16] = molecular target: T6, Vasopressin V1b receptor (Rattus norvegicus, UniProt P48974); assay: Displacement of [3H]AVP from V1B receptor in Wistar rat pituitary membranes incubated for 60 mins by microplate scintillation counting method; assay type: cell membranes
T6 sequence (P48974 whole entry): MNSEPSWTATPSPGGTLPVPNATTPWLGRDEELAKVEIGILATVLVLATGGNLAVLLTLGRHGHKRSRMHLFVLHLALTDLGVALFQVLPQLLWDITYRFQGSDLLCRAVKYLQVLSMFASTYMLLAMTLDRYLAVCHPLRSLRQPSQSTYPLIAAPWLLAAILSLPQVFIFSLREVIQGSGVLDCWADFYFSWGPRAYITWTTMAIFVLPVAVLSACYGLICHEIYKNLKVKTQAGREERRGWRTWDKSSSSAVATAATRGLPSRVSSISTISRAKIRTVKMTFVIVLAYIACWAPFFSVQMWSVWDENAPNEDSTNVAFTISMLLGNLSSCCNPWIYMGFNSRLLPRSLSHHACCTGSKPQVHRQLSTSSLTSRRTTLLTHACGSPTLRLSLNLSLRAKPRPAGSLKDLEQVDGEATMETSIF

T3 sequence (P30518 whole entry): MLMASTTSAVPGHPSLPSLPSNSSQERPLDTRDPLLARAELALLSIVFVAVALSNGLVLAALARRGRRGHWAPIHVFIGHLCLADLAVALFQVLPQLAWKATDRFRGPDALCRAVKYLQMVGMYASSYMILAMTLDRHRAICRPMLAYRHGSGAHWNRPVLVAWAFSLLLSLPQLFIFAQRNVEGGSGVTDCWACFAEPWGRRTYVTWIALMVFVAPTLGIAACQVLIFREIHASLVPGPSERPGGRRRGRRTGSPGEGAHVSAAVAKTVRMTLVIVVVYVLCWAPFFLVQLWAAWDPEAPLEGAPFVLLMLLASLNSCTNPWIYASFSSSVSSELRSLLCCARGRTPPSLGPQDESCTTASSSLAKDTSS

Which Ki [1] does the source give for Cc1ccn(-c2ccc(C(=O)N3Cc4cccn4Cc4ccccc43)c(Cl)c2)n1 here?
Its Ki is greater than 1000 nM.

What about the Emax [2] of the same molecule?
Its Emax is less than 10%.

What about the inhibition [3] of the same molecule?
The inhibition was 33%.

And the Selectivity ratio [4]?
The Selectivity ratio was 4.

And the Ki [5]?
Its Ki is 39.9 nM.

And the Ki [6]?
Its Ki is 125 nM.

And the EC50 [7]?
Its EC50 is 0.7 nM.

What about the Selectivity ratio [8] of the same molecule?
Its Selectivity ratio is 6.9.

What about the IC50 [9] of the same molecule?
The IC50 was 55 nM.

And the Ki [10]?
Its Ki is 465 nM.

What about the IC50 [11] of the same molecule?
The IC50 was 1660 nM.

With COCc1nnc(N2CC(Oc3ccc(F)cc3Cl)C2)n1-c1ccc(OC)nc1 as the molecule, how does the IC50 [12] read?
The IC50 was 63 nM.

And the IC50 [13]?
Its IC50 is 2620 nM.

And the IC50 [14]?
The IC50 was 600 nM.

And the IC50 [15]?
The IC50 was 1530 nM.

With Cc1nc2c([nH]1)-c1ccccc1N(C(=O)c1ccc(NC(=O)c3ccccc3-c3ccccc3)cc1)CC2 [CONIVAPTAN] as the molecule, how does the Ki [16] read?
The Ki was greater than 10 µM.
